Experimental data: article PMC7858579, “Biochemical and structural characterization of a recombinant fibrinogen-related lectin from Penaeus monodon” (Scientific Reports, 2021)

Columns and labels:
[1] = molecular target: T1, His6 PmFREP (PmFREP; PL5-1) (Penaeus monodon, UniProt A0A068LKH5, G184D); experiment: inhibition of human red blood cell (type A) agglutination; format: cell-based; conditions: 0.5 uM His6 PmFREP, 3% (v/v) red blood cells; multivalent avidity assay
T1 construct: full length without native signal peptide; XEEL signal peptide (cleaved), N-terminal His6 tag kept; native part starts GTTERTDTA (from primer); Trichoplusia ni cells; disulfide-linked dimer of pentamers
T1 sequence (A0A068LKH5 entry or part of it G184D): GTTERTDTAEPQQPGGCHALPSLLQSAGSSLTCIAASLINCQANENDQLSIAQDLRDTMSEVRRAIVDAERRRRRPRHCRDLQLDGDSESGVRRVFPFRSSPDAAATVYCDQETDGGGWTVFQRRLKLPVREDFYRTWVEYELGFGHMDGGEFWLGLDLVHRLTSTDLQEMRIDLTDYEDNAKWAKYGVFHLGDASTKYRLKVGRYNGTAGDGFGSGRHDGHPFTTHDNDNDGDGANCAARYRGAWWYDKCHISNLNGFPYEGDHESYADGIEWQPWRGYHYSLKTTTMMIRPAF

[2] = molecular target: T1, His6 PmFREP (PmFREP; PL5-1); experiment: binding to GlcNAc affinity resin and competitive elution, western blot; conditions: 100 mM monosaccharide, 20 mM HEPES pH 7.5, 150 mM NaCl, 10 mM CaCl2

SMILES	concentration inhibiting agglutination [1]	binding to GlcNAc affinity resin and competitive elution, western blot [2]
CC(=O)N[C@H]1[C@H]([C@H](O)[C@H](O)CO)OC(O)(C(=O)O)C[C@@H]1O (some centres unmarked) [Neu5Ac, N-acetylneuraminic acid]	5 mM	
CC(=O)N[C@H]1C(O)O[C@H](CO)[C@@H](O)[C@@H]1O (some centres unmarked) [GlcNAc]	~ 10 mM	His6 PmFREP can bind GlcNAc as expected for fibrinogen-like lectin
CC(=O)N[C@@H]1C(O)O[C@H](CO)[C@@H](O)[C@@H]1O (some centres unmarked) [ManNAc, N-acetylmannosamine]	1 mM	
CC(=O)N[C@H]1C(O)O[C@H](CO)[C@H](O)[C@@H]1O (some centres unmarked) [GalNAc, N-acetylgalactosamine]	~ 10 mM	
